Results published in US8334239B2, “High affinity VEGF-receptor antagonists” (The Board of Regents of the University of Texas System, priority 2007, dated 2012).
“Also recorded” adds a separate entry of the source. Positions of bridges follow the written chain, without caps; N, C: chain ends. Non-standard residues stand in square brackets, D forms with d. Residues, ends and D or L forms follow the SMILES beside them. Chains are numbered I, II in the order given. *: point of attachment. Fluorescein(5-Mal) = O=C1OC2(c3ccc(O)cc3Oc3cc(O)ccc32)c2ccc(N3C(=O)CC(*)C3=O)cc21; Gly(N(CH2)2(3-indolyl)) = O=C(O)CNCCc1c[nH]c2ccccc12; Gly(N-piperonyl) = O=C(O)CNCc1ccc2c(c1)OCO2; Nrpe = C[C@@H](NCC(=O)O)c1ccccc1; NFurfurylGly = O=C(O)CNCc1ccco1; Nleu = CC(C)CNCC(=O)O; Nlys = NCCCCNCC(=O)O; Ahx = NCCCCCC(=O)O; βAla = NCCC(=O)O

Tests used:
HUVEC [1] = assay: HUVEC proliferation assay; type: cell-based, human; conditions: 1.3 nM VEGF
Procedure: HUVEC proliferation assay. HUVEC cells (ScienceCell) were harvested using enzyme free cell dissociation buffer and resuspended in ECM (5% FBS). Cells were plated (2000 cells/well) on white, clear bottom 96-well plates coated with gelatin. Cells were grown for 24 h at 37° C. […] The treatment was repeated with fresh media (0.2% FBS) and reagents after two days. After four days, viable cells were determined using CellTiter-Glo® Luminescent Cell Viability Assay kit (Promega), and the luminescent signal was read by the plate reader.

HUVEC [2] = assay: HUVEC tube formation assay; type: cell-based, human; conditions: 1 μM and 10 μM, 1.3 nM VEGF
Procedure: HUVEC tube formation assay. Endothelial cell medium gel (ECM gel) was thawed overnight at 4° C. refrigerator and added 50 μl to each well of pre-chilled white, clear bottom 96-well plate. Incubated for 30 min to facilitate the gel formation. […] 150 μl of these treated cell suspension (20,000 cells) was added per well and incubated at 37° C. and visualized tube formation under the light microscope after 16 hours (10× magnification).

[3] = test system: A673 (human Ewing's sarcoma) tumors; conditions: mouse, in vivo
Procedure: Cell Culture. The human Ewing's sarcoma cell line A673 (CRL-1598, ATCC, Manassas, Va.) was grown as a monolayer in Dulbeco's minimal essential medium (Invitrogen, Carlsbad, Calif.) supplemented with 10% heat-inactivated fetal calf serum (Atlanta Biologicals, Lawrenceville, Ga.). Cells were maintained at 37° C. in a mixture of 5% CO2 and 95% air. Cell viability was monitored by Trypan Blue (Invitrogen, Carlsbad, Calif.) exclusion after trypsinization. Cell fingerprinting was performed by Dr. Luc Girard at the McDermott Center at UT Southwestern to verify identity of cells and the cells were also tested and found to be negative for Mycoplasma prior to use.
Tumor study. Tumors were established in the right flank of 6-8 week old female athymic nu/nu mice (NCl, Frederick, Md.) by subcutaneous injection of 2.5 million cells in a volume of 50 μl PBS. On the same day, an Alzet subcutaneous pump (DURECT Corporation, Cupertino Calif.) was implanted per manufacturer's recommendations. […] Pumps were weighed empty and again when filled to ensure correct loading. Based on the mean pumping rate (0.2 μl/hr), these pumps were predicted to elute for 21 days. Implantation of the pump was performed by making a small incision on the back of the anesthetized animal and subsequently using a hemostat to create a subcutaneous pocket in which to place the pump. The incision was closed with a 5-0 prolene (Ethicon, Somerville, N.J.). Animal weights and tumor volumes (calipers) were recorded twice weekly. Volumes were calculated using the formula D*d^2*0.52 where D is the long diameter and d is the perpendicular short diameter.
Immunohistochemistry. Formalin-fixed tissues were embedded in paraffin, sectioned and stained with hematoxylin and eosin by the Molecular Histopathology Laboratory at UT Southwestern. H&E photographs were taken at a total magnification of 40× on a Nikon DXM 1200 digital camera (Melville, N.Y.). For immunohistochemical staining, slides were deparaffinized by heating at 60° C. for one hour followed by immersion in xylenes. Tissue was rehydrated by sequential immersion in ethanols. Endogenous peroxidase activity was blocked with 3% H2O2 in methanol. Antigen retrieval was performed using pH 6.0 citrate buffer (LabVision, Freemont, Calif.) for 15 minutes in a pressure cooker. […] The primary antibody was detected by incubating with a biotinylated donkey anti-rat IgG (Jackson ImmunoResearch, Westgrove, Pa.) followed by the ABC detection kit (Vector laboratories, Burlingame, Calif.). […] Microvessel density (MVD) was determined by manually counting the number of blood vessels in visible in the microscopic field of view (total magnification, 100×). […]

VEGFR2 [4] = target: T1, VEGFR2 (Homo sapiens, UniProt P35968); assay: GU40C4 cell surface binding assay (biotinylated peptoid, streptavidin quantum dots); type: cell-based; set-up: allow the library to be screened against the full-length receptor in as natural an environment as possible; host or cells: PAE/KDR (porcine aortic endothelial cells expressing human KDR); conditions: for binding to cells with or without native VEGFR2: HeLa, HEK-293, HFF, MCF-7, only MCF-7 expresses VEGFR2
Procedure: Different types of cells (PAE/KDR, PAE, Hela, HEK-293, MCF-7, HFF) were grown on each well of chamber slides (Nalge Nunc International) (10,000 cells/chamber) overnight. Washed, and fixed cells with 3.7% formaldehyde and blocked with Startingblock blocking buffer. […] After the final washing, cells were mounted by ProLong® Gold antifade reagent with DAPI (Invitrogen) and visualized under DAPI filter of the fluorescence microscope.
Specificity of the GU40C4-VEGFR2 interaction on the cell surface. […] The DAPI-stained nuclei are shown in blue. […] In addition, the red halo was not observed when the VEGFR2-expressing PAE/KDR cells were incubated with only the streptavidin-coated red quantum dots without addition of the biotinylated peptoid (FIG. 5C).
An important question is whether the peptoid is able to recognize VEGFR2 on the surface of cells when the receptor is expressed at native levels. To address this question, the inventors incubated biotinylated CU40C4 and streptavidin-coated red quantum dots with four different cell lines: HeLa, HEK-293, human foreskin fibroblast (HFF) and MCF-7. Of these, only MCF-7 expresses significant quantities of the VEGFR2. […] The inventors conclude from these experiments that the dimeric peptoid is highly specific for the VEGFR2 and can recognize the receptor even when it is expressed at native levels on the surface of a breast cancer cell.
Target sequence in this assay (P35968 20-1356): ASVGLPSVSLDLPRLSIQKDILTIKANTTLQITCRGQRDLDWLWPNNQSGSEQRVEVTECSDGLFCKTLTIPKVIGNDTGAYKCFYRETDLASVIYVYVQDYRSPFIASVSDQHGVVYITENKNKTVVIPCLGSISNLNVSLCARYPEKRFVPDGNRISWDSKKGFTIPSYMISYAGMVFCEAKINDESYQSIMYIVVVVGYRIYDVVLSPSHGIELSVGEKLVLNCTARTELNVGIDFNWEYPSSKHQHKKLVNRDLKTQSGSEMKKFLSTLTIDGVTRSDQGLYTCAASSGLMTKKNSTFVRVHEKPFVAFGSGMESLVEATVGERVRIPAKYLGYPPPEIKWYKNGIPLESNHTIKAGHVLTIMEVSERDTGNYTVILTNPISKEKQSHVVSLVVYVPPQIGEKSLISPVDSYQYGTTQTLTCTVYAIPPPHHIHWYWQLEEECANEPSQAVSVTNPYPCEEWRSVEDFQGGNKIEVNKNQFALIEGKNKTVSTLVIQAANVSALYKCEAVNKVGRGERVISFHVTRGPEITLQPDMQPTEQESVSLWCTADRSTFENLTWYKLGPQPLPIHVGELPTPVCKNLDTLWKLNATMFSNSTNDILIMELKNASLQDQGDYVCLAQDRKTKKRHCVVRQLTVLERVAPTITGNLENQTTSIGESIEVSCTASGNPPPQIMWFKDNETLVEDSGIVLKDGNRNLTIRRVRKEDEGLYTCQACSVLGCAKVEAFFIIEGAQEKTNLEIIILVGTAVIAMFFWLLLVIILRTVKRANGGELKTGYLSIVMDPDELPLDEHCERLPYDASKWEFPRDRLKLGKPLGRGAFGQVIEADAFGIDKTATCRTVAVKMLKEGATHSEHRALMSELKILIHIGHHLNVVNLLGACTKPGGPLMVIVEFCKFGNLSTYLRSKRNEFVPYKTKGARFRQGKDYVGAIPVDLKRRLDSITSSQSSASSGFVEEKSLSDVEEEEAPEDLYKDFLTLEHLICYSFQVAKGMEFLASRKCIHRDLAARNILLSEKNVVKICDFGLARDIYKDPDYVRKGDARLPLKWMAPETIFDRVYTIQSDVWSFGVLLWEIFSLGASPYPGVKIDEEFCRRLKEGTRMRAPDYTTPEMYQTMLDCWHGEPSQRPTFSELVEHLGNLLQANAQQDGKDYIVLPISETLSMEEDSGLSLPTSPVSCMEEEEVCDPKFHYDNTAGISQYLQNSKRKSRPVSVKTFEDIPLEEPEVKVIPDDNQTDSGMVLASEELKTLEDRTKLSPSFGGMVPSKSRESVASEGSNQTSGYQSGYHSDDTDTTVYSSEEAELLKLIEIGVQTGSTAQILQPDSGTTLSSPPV

VEGFR2 [5] = target: T1, VEGFR2; assay: VEGF-induced VEGFR2 autophosphorylation in PAE/KDR cells, Western blot; type: cell-based; set-up: allow the library to be screened against the full-length receptor in as natural an environment as possible; host or cells: PAE/KDR (porcine aortic endothelial cells expressing human KDR)
Procedure: Western blots. Experiments were conducted using PAE/KDR cells that were grown on 6-well plates. […] The blots were probed with Phospho-VEGF receptor 2 (Tyr1175) (19A10) rabbit monoclonal or Total VEGFR2 primary antibodies (Cell signaling) and HRP-conjugated secondary antibody (BioRad).
Functional characterization of the VEGFR2-binding peptoids. GU40C and GU40E were then tested for their ability to modulate VEGFR function. Of course, since the screen simply demanded binding of the peptoid to the receptor, it was not a given that this would be the case. […] Western blot analysis using phospho-VEGFR2-specific antibodies was then employed to monitor receptor activation.
To do so, the inventors examined the effect of the peptoid on VEGF-induced VEGFR2 autophosphorylation by Western blotting, as described earlier.
Target sequence in this assay (P35968 20-1356): as above

CD105 = target: T2, CD105 (Homo sapiens, UniProt P17813); assay: ELISA-like binding assay on immobilized CD105; conditions: same ELISA-like assay
T2 sequence (P17813 26-658): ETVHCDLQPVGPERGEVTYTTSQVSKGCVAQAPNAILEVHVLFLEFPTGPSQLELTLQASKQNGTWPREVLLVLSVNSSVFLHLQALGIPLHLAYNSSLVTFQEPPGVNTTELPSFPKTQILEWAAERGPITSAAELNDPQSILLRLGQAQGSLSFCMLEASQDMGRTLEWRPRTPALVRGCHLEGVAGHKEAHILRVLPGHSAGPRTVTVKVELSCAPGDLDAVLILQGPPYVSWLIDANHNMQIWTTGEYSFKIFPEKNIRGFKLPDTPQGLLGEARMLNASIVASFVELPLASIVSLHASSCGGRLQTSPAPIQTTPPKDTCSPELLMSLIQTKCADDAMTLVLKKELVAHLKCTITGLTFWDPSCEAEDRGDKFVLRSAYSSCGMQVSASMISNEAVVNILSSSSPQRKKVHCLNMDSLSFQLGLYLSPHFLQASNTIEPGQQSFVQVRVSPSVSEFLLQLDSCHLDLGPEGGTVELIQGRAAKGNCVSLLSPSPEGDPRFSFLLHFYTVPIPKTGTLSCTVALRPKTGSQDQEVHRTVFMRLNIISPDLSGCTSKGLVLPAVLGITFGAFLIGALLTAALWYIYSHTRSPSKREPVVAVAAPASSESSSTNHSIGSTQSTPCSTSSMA

GST = assay: ELISA-like binding assay on immobilized GST
VEGFR2 [6] = target: T1, VEGFR2; assay: ELISA-like binding assay, fluoresceinated peptoids on immobilized VEGFR2 extracellular domain; set-up: VEGFR2 extracellular domain (amino acids 1-764 fused to 6× histidine-tagged Fc of human IgG, via the peptide IEGRMD; R&D Systems); linker peptide IEGRMD (internal); Fc of human IgG (C); 6xHis (C); purchased R&D Systems; conditions: fluoresceinated peptoid
Procedure: ELISA based binding assay. White, clear bottom 96-well plates (Corning Inc.) were coated with of 1 μg/ml recombinant human VEGFR2 protein (R&D Systems) using the sensitizing buffer (0.621 g NaHCO3 & 0.275 g Na2CO3 dissolved on 100 ml of ddH2O, pH=9.5) overnight at 4° C. Washed with 3×200 μl of wash buffer 1×PBS with 0.05% Tween-20 and blocked with Startingblock blocking buffer (Pierce). Added 50 μl of serial dilutions of FITC labeled peptoids dissolved in Startingblock blocking buffer to each well & allowed to react for 1 h at room temperature. Washed with 5×200 μl of wash buffer 1×PBS with 0.05% Tween-20 and remaining fluorescence was measured at 520 nm using the plate reader.
The isolated peptoids are VEGFR2 ligands. Two of the ‘hits’ from this screen, GU40C and GU40E (see FIG. 2) were resynthesized, both as free compounds and with C-terminal Cys (for C-terminal fluorescein tagging via maleimide chemistry), cleaved from the beads and purified to apparent homogeneity by reverse phase HPLC. […] The association of these peptoids with VEGFR2 was evaluated using an ELISA-like assay. A commercially available fusion protein containing the VEGFR2 extracellular domain (amino acids 1-764 fused to 6× histidine-tagged Fc of human IgG, via the peptide IEGRMD; R&D Systems) was plated into 96-well plates and then mixed with various concentrations of […] Fluorescein (FITC)-labeled peptoid. After washing away unbound peptoid, the remaining fluorescence emission signal was measured at 520 nm. In this assay purified VEGFR2 protein was used instead of the whole PAE/KDR cells that over express VEGFR2, in order to confirm these compounds were binding only to the receptor.
Target sequence in this assay (P35968 20-764): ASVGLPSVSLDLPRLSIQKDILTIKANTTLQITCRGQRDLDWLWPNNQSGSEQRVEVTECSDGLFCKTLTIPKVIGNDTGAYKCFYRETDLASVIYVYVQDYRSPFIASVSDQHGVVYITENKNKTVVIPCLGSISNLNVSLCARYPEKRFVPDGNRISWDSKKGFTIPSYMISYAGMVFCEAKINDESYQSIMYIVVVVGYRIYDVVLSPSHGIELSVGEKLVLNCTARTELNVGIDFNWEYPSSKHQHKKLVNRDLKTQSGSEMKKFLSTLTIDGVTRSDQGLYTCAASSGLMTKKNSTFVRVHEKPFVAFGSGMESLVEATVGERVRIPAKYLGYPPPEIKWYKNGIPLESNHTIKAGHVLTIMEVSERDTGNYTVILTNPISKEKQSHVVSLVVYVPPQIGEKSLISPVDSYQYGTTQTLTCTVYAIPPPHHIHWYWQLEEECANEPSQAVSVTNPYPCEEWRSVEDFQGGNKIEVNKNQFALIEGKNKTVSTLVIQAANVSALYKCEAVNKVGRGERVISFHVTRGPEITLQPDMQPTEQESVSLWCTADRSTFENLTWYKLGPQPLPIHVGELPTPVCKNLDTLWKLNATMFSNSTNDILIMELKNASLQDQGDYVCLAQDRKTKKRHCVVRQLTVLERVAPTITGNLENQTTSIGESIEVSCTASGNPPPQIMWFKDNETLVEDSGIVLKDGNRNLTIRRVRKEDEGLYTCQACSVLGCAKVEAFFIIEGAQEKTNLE

Row | SMILES | IC50 (HUVEC [1]; 4 days, read-out: IC50 of VEGF-induced HUVEC proliferation) [µM] | inhibition of HUVEC proliferation (in words) (HUVEC [1]; 1 μM) | inhibition of HUVEC proliferation (in words) (HUVEC [1]; 10 μM) | effect on VEGF-induced HUVEC tube formation (HUVEC [2]) | adverse effects of treatment [3] | time after cessation of therapy until tumors grow at a rate similar to control [3] [days] | tumor necrosis (H&E histology) [3] | tumor size [3] | binding signal on PAE/KDR cells with competitor (VEGFR2 [4]; 100-fold excess unlabeled GU40C4) | binding to cells with or without native VEGFR2 (VEGFR2 [4]) | binding to cells with or without native VEGFR2 (VEGFR2 [4]; listed as CU40C4) | binding to PAE parental cells (VEGFR2 [4]; cells lacking the VEGFR2 expression vector) | improvement of antagonism over the monomeric parent compound (VEGFR2 [5]) | binding to CD105 (CD105) | binding to GST (GST) | agonist activity on VEGFR2 phosphorylation (VEGFR2 [5]; PAE/KDR cells, Western blot) | effect on VEGF-induced VEGFR2 phosphorylation (in words) (VEGFR2 [5]; monomeric peptoids, 500 μM, 1.3 nM VEGF) | binding after pre-incubation of immobilized receptor with unlabeled VEGF (VEGFR2 [6])
1 | CC(C)CN(CC(=O)N(CCCCN)CC(=O)N(CC(=O)N(CC(=O)N(CCCCN)CC(=O)N(CC(=O)N(CCCCN)CC(=O)N(CCCCN)CC(=O)NCCCCCC(=O)NCCC(=O)N[C@@H](CCCCNC(=O)CN(CCCCN)C(=O)CN(CCCCN)C(=O)CN(CC(C)C)C(=O)CN(CCCCN)C(=O)CN(Cc1ccc2c(c1)OCO2)C(=O)CN(C(=O)CN(CCCCN)C(=O)CN(CC(C)C)C(=O)CNCCCCN)[C@H](C)c1ccccc1)C(=O)N[C@@H](CSC1CC(=O)N(c2ccc3c(c2)C(=O)OC32c3ccc(O)cc3Oc3cc(O)ccc32)C1=O)C(N)=O)CC(C)C)Cc1ccc2c(c1)OCO2)[C@H](C)c1ccccc1)C(=O)CNCCCCN (stereo partly drawn) [GU40C4] (I: H-[Nlys][Nleu][Nlys][Nrpe][Gly(N-piperonyl)][Nlys][Nleu][Nlys][Nlys][Ahx][βAla]KC(Fluorescein(5-Mal))-NH2 / II: H-[Nlys][Nleu][Nlys][Nrpe][Gly(N-piperonyl)][Nlys][Nleu][Nlys][Nlys]; amide I:12-II:C) | ~1 | halfway | reduced to essentially basal levels; also recorded: almost to the basal level | Clear evidence of the inhibition of tube formation; also recorded: able to disrupt HUVEC tube formation; also recorded: disrupted HUVEC tube formation | no adverse effects | 3 to 4 | induced significant tumor necrosis | approximately 200 mm^3 | disappeared completely | did not associate detectably with cells that lacked VEGFR2 | red halo was observed only when the peptoid was incubated with the MCF-7 cells | did not bind detectably | 100- to 500 fold |  |  |  |  | 
2 | CC(C)CN(CC(=O)N(CCCCN)CC(=O)N(CCCCN)CC(N)=O)C(=O)CN(CCCCN)C(=O)CN(CC(C)C)C(=O)CN(CCCCN)C(=O)CN(Cc1ccco1)C(=O)CN(CCCCN)C(=O)CNCCc1c[nH]c2ccccc12 [GU40E, Ntrp-Nlys-Nffa-Nlys-Nleu-Nlys-Nleu-Nlys-Nlys] (H-[Gly(N(CH2)2(3-indolyl))][Nlys][NFurfurylGly][Nlys][Nleu][Nlys][Nleu][Nlys][Nlys]-NH2) |  |  |  |  |  |  |  |  |  |  |  |  |  | did not bind detectably | did not bind detectably | Neither peptoid at any concentration tested evinced agonist activity; also recorded: None of the peptoids exhibited agonist activity | weak antagonists | almost no binding
